Oligonucleotides are written 5' to 3', each unit as a sugar letter and its base; * is a phosphorothioate linkage, no mark a phosphodiester; rarer units and linkages stand in square brackets, end groups in braces. Plain capitals give the bases only. r = 2'-OH (RNA); f = 2'-fluoro
T1: LTBP-1 degradation by chymase (Homo sapiens, UniProt P23946)
T1 sequence (P23946 22-247): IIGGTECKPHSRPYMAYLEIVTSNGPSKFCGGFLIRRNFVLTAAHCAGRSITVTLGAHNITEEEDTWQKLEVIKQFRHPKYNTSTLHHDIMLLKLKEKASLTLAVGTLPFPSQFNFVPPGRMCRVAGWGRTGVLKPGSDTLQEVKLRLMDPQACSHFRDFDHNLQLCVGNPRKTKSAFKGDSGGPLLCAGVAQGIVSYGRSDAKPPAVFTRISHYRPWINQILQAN

T2: chymase (Homo sapiens, UniProt P23946)
T2 sequence (P23946 22-247): T1 sequence (P23946 22-247)

B1: 13 (nucleic acid)
chain: rGrGrGrAfCrGrGfUrArGrGrArAfUfUfCfCrGfCrArAfCfCrAfUfCfCfCrGfUrArAfCfUrAfUrGrGfUfUrArGrAfUrArGrArGfUfUrArArArArAfCfCrAfUrArGrArArGrArGfCrGrGfCfCrGfC
modifications: aptamer
B2: 4 (nucleic acid)
chain: rGrGrGrAfCrGrGfUrArGrGrArAfUfUfCrGfUfCfCrAfUfUfCfUrAfCrArGrAfUrArGrArGrAfUrArArArGfUrArGrArAfUfUfUrArAfCrArArArAfCrAfUrArGrArArGrArGfCrGrGfCfCrGfC
modifications: aptamer
B3: 14 (nucleic acid)
chain: rGrGrGrAfCrGrGfUrArGrGrArAfUfUfCfUfCrGfUfUfCfCfUrGrAfCrArGfCrAfUfUfUrGrArGrAfUrArGrAfUfUfUrArArAfCrArArAfCrGfCrAfCrAfUrArGrArArGrArGfCrGrGfCfCrGfC
modifications: aptamer

Tests used:
[1] = target: T1, LTBP-1 degradation by chymase; experiment: LTBP-1 degradation inhibitory activity, NHLF culture supernatant, Western blotting; format: biochemical; parameters: key: +: detection of a band with the same level of density as an LTBP-1 band in the control; −: absence of detection of LTBP-1 band as clear as that of the negative control; settings: final nucleic acid concentration 5 μM, chymase 10 ng/mL (0.33 nM), 37° C. 1 hr; visual determination of LTBP-1 band
Description: A third method of evaluation employs a native substrate contained in a cell culture supernatant. Here, degradation of chymase substrate LTBP-1 is detected by Western blotting. NHLF cells (manufactured by Cambrex Bio Science) under freezing are rapidly thawed in a 37° C. water bath, and then suspended in a medium (10% FBS/F-12). After centrifugation at 1200 rpm for 5 minutes, the resulting supernatant is removed, and the cells are re-suspended in the medium. Total volume of 10 mL medium is added to the centrifuged cells, and the cell suspension is transferred to a cell culture dish and cultured at 37° C. in the presence of 5% CO2. The cells are observed morphology and proliferation status under a microscope. When the cells become confluent, the medium is replaced with a serum-free medium (0.2% BSA/F-12). Two days after replacement of the medium, the culture supernatant is collected, dispensed, and stored under freezing at −30° C.
After 40 μL of the NHLF culture supernatant, freshly thawed before use, is dispensed to a tube, 5 μL of the nucleic acid solution diluted with solution C is added thereof. For positive control, chymostatin is diluted with solution C, and this dilution is added in the same manner. For negative control, solution C alone is added. Next, 5 μL of a 100 ng/mL dilution of chymase in solution E (solution C+0.1% BSA, 0.05% sodium azide) is added. For control, a chymase-free tube is prepared. After stirring, the sample is incubated at 37° C. for 1 hour, and mixed with an equal volume of lysis buffer for electrophoresis to terminate the reaction. LTBP-1 in the sample is detected by the procedure of Western blotting described below.
The sample mixed in the lysis buffer is boiled for 3 minutes, and 10 μL of the sample is subjected to electrophoresis on 5-20% acrylamide gel. After completion of the electrophoresis, the sample is transferred onto a nitrocellulose filter, after which the filter is blocked with 5% skimmed milk, 50 mM Tris-HCl (pH 8.0), and 0.05% sodium azide. The filter is reacted with a 2 μg/mL dilution of anti-LTBP-1 monoclonal antibody in 2% BSA, PBS, and 0.05% sodium azide at room temperature overnight. […]
As determined according to LTBP-1 band density and position (molecular weight), the band from the chymase-free well serves for positive control (+), and the band from the negative control well serves for negative control (−). […]
Chymase is deeply involved in the activation of TGF-β, which is one of the important factors causing fibrosis. […] Whether the nucleic acid of the present invention has an inhibitory activity against LTBP-1 degradation by chymase was assessed by the method shown below. […]

chymase = target: T2, chymase; experiment: Surface plasmon resonance (Biacore T100), aptamer immobilized on SA chip, chymase injected as analyte; format: binding; parameters: key: ++: a sequence that binds to chymase significantly more strongly than the negative control 40N; +: a sequence that binds to chymase equivalently compared with the negative control 40N; settings: Table 1; about 1000 RU nucleic acid immobilized, chymase 0.2 μM analyte, running buffer solution A; compared with 40N
How it was run: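 Aptamer captured on streptavidin SA chip via 5′-biotin 16-nt poly dT (~1500 RU), and 20 μL of 0.2 μM chymase injected as analyte. Running buffer Solution A for SEQ ID NO: 4-20 and 22-34, Solution C for SEQ ID NO: 38-48. Random 30- or 40-nt RNA served as negative control.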

Row | Molecule | inhibitory activity on LTBP-1 degradation [1] | Binding activity as determined using Biacore (chymase)
1 | 58 (GGGUUGAAGAUAUUAAAGAACCC; 2'-fluoro at CU, RNA at AG, backbone not given here) [compound 58] | − | 
2 | GGGU(F)U(F)GAAGAU(F)AU(F)U(F)AAAGAAC(F)C(F)C(F) (GGGUUGAAGAUAUUAAAGAACCC; 2'-fluoro at CU, RNA at AG, backbone not given here) [SEQ ID NO: 58] | − | 
3 | 56 (GGGUUAGAUAGAGUUAAAAACCC; 2'-fluoro at CU, RNA at AG, backbone not given here) [compound 56] | + | 
4 | CC(C)C[C@H](NC(=O)[C@@H](NC(=O)N[C@@H](Cc1ccccc1)C(=O)O)[C@@H]1CCN=C(N)N1)C(=O)N[C@H](C=O)Cc1ccccc1 [chymostatin, reference compound] | + | 
5 | B1 |  | ++
6 | B2 |  | ++
7 | B3 |  | ++

Reference: patent US9012420B2, “Aptamer for chymase, and use thereof” (Ribomic Inc., priority 2009, dated 2015)
